Measured values as given in ChEMBL document CHEMBL1158508, “Molecular modeling study of 4-phenylpiperazine and 4-phenyl-1,2,3,6-tetrahydropyridine derivatives: a new step towards the design of high-affinity 5-HT1A ligands” (Bioorg Med Chem Lett, 2010).

What was measured:
[1] = molecular target: 5-hydroxytryptamine receptor 7 (Homo sapiens, UniProt P34969); assay: Binding affinity to 5HT7 receptor
[2] = molecular target: T1, 5-hydroxytryptamine receptor 1A (Homo sapiens, UniProt P08908); assay: Inhibition of 5HT1A receptor
T1 sequence (P08908 whole entry): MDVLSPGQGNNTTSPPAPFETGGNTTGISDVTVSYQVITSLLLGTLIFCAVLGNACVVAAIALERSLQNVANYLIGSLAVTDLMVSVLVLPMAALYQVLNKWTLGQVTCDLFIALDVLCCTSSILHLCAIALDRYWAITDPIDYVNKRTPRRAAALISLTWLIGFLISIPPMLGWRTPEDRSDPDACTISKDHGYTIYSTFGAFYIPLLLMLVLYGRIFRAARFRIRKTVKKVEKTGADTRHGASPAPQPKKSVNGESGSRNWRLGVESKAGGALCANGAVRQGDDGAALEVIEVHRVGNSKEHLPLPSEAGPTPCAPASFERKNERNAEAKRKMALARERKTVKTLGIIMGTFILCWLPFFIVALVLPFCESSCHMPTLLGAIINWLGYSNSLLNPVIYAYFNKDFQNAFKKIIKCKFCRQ

5-hydroxytryptamine receptor 7, sequence (P34969 whole entry): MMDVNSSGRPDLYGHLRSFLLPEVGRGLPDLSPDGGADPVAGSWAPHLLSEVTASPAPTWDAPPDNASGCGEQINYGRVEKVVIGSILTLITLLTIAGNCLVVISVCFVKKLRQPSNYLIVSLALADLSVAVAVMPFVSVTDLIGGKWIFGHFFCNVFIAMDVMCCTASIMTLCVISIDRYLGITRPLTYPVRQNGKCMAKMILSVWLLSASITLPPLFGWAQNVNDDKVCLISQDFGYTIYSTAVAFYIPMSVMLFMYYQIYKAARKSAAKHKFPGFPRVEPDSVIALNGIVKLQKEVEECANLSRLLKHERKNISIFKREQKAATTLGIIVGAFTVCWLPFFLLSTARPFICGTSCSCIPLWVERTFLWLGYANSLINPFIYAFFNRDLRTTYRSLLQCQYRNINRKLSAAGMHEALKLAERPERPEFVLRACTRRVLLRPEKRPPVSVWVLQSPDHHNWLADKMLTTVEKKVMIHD

Row | Compound | Ki [1] [nM] | IC50 [2] [nM]
1 | O=C1Nc2cccc3c2C1(CCCCN1CCN(c2ccccc2)CC1)CCC3 (racemic) | 2.14 | 
2 | O=C1Nc2cccc3c2C1(CCCCN1CC=C(c2ccccc2)CC1)CCC3 (racemic) | 3.31 | 
3 | COc1ccc2[nH]cc(CCCCN3CC=C(c4ccccc4)CC3)c2c1 |  | 20
4 | Oc1ccc2[nH]cc(CCCCN3CC=C(c4ccccc4)CC3)c2c1 [ROXINDOLE] |  | 0.8
